The subject of assay [1] is Felis catus. Briefly: Ratio of in vivo beta-2 adrenergic receptor blocking activity in iv dosed cat assessed as half dose required for desensitizing isoproterenol-induced diastolic hypotensive response to in vivo beta-1 adrenergic receptor blocking activity in iv dosed cat assessed as half dose required for desensitizing isoproterenol-induced tachycardia. It is filed as functional.

Assay [2] concerns Felis catus. Briefly: In vivo beta-1 adrenergic receptor blocking activity in iv dosed cat assessed as half dose required for desensitizing isoproterenol-induced tachycardia after 3.5 mins. It is filed as functional.
In assay [3] the test system is Felis catus. Briefly: In vivo beta-2 adrenergic receptor blocking activity in iv dosed cat assessed as half dose required for desensitizing isoproterenol-induced diastolic hypotensive response after 3.5 mins. Format: functional.
The next assay has as its system Canis familiaris. Briefly: Antiarrhythmic activity in iv dosed dog assessed as dose required for reversal of ouabain-induced cardiac arrhythmia. Format: functional, Canis lupus familiaris, Heart.

Molecules are shown by their SMILES.

With `CC(=O)Nc1ccc(OCC(O)CNC(C)C)c(C(C)=O)c1` (centres undefined) [DIACETOLOL], the Ratio in the assay with Felis catus [1] came out at 3.59. Further, the Activity with Felis catus [2] was 0.089 mg/kg; in the assay on Felis catus [3], 0.32 mg/kg; with Canis familiaris, >15 mg/kg.
For the compound `CCC(=O)Nc1ccc(OCC(O)CNC(C)C)c(C(C)=O)c1` (racemic), the Ratio in the assay on Felis catus [1] was 8.25. Besides, the Activity with Felis catus [2] came out at 0.063 mg/kg; with Felis catus [3] it was 0.52 mg/kg; in the assay with Canis familiaris, 22.5 mg/kg.
In the case of `CCCC(=O)Nc1ccc(OCC(O)CNC(C)C)c(C(=O)CC)c1` (centres undefined), the Ratio in the assay on Felis catus [1] is given as 14.18. The Activity with Felis catus [2] came to 0.079 mg/kg; in the assay on Felis catus [3] it was 1.12 mg/kg; in the assay on Canis familiaris, 6.1 mg/kg.
`CC(=O)c1cc(NC(=O)C(C)C)ccc1OCC(O)CNC(C)C` (centres undefined): the Ratio in the assay on Felis catus [1] came out at 18.5. The Activity with Felis catus [2] was found to be 0.1 mg/kg; in the assay on Felis catus [3] it was 1.85 mg/kg; with Canis familiaris, 17.2 mg/kg.
For `CCCCCCC(=O)Nc1ccc(OCC(O)CNC(C)C)c(C(C)=O)c1` (centres undefined), in that order: 12.5, 0.04 mg/kg, 0.5 mg/kg and 2.7 mg/kg.
Taken in the same sequence, the figures for `CC(=O)c1cc(NC(=O)CC(C)C)ccc1OCC(O)CNC(C)C` (centres undefined) were 19.09, 0.11 mg/kg, 2.1 mg/kg and 3.8 mg/kg.
Taken in the same sequence, the figures for `CCCCCCCC(=O)Nc1ccc(OCC(O)CNC(C)C)c(C(C)=O)c1` (racemic) were 13.84, 0.05 mg/kg, 0.692 mg/kg and 3.9 mg/kg.
As for `CCCC(=O)Nc1ccc(OCC(O)CNC(C)C)c(C(C)=O)c1` (centres undefined) [ACEBUTOLOL], the Ratio with Felis catus [1] is 20. Further, the Activity was 0.13 mg/kg with Felis catus [2], 2.6 mg/kg in the assay on Felis catus [3] and 8.1 mg/kg in the assay with Canis familiaris.
Taken in the same sequence, the figures for `CCCCC(=O)Nc1ccc(OCC(O)CNC(C)C)c(C(C)=O)c1` (centres undefined) were 27, 0.033 mg/kg, 0.89 mg/kg and 4.8 mg/kg.
In the case of `CCC(=O)Nc1ccc(OCC(O)CNC(C)C)c(C(=O)CC)c1` (centres undefined), in the assay on Felis catus [1], the Ratio was found to be 15.77. Besides, the Activity in the assay with Felis catus [2] amounted to 0.026 mg/kg; in the assay on Felis catus [3], 0.41 mg/kg; in the assay on Canis familiaris, 6.4 mg/kg.
Taken in the same sequence, the figures for `CCCC(=O)Nc1ccc(OCC(O)CNC(C)C)c(C(=O)CCC)c1` (centres undefined) were 20.78, 0.23 mg/kg, 4.78 mg/kg and 3.5 mg/kg.
Consider `CC(=O)c1cc(NC(=O)c2ccccc2)ccc1OCC(O)CNC(C)C` (centres undefined), for which the Activity amounted to 0.54 mg/kg in the assay on Felis catus [2], 1 mg/kg in the assay on Felis catus [3] and 5.8 mg/kg in the assay with Canis familiaris.
Consider `CC(=O)c1cc(NC(=O)Cc2ccccc2)ccc1OCC(O)CNC(C)C` (centres undefined), for which the Ratio with Felis catus [1] is reported as 5.33. Also, the Activity in the assay with Felis catus [2] stood at 0.03 mg/kg; in the assay on Felis catus [3], 0.16 mg/kg; with Canis familiaris, 12.6 mg/kg.
As for `CC(=O)Nc1ccc(OCC(O)CNC(C)C)cc1` (centres undefined) [PRACTOLOL], in the assay with Felis catus [1], the Ratio was 10.13. For the same compound, the results for the Activity with Felis catus [2], with Felis catus [3] and in the assay with Canis familiaris were 0.158 mg/kg, 1.6 mg/kg and >35 mg/kg, respectively.
For `CCCCCC(=O)Nc1ccc(OCC(O)CNC(C)C)c(C(C)=O)c1` (centres undefined), in that order: 29.31, 0.029 mg/kg, 0.85 mg/kg and 3.2 mg/kg.
